These results are taken from BindingDB's records for doi:10.1021/jm030354b (Millennium Pharmaceuticals, 2004).

The target in the experiment is Integrin alpha-IIb/beta-3 (Homo sapiens, UniProt P08514+P05106). Briefly: Inhibition of platelet aggregation induced by 20 uM adenosine 5-diphosphate (ADP) in citreated human platelet rich plasma (h-PRP).
Integrin alpha-IIb/beta-3, sequence (P05106 27-788 limits assumed): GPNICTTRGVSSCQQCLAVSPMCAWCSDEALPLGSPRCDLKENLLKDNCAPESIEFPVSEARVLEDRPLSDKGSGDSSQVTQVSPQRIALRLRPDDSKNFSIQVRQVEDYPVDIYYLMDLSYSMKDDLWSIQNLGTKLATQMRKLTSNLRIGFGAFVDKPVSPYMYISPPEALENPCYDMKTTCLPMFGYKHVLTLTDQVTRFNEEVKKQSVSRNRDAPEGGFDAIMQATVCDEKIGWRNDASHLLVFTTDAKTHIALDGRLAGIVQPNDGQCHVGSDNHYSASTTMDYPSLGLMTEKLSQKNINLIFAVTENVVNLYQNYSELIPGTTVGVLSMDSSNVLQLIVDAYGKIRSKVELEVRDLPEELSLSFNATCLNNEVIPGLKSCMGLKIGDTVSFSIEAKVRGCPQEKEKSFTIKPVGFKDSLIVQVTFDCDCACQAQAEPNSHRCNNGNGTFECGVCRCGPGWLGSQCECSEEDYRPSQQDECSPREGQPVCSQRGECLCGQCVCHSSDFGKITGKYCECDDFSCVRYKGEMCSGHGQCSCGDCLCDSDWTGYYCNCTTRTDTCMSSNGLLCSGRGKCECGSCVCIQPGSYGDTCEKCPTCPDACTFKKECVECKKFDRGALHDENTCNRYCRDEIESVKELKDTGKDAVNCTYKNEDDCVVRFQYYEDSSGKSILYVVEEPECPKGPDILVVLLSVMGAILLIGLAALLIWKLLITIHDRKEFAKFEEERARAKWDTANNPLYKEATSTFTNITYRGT
Integrin alpha-IIb/beta-3, sequence (P08514 32-887 limits assumed): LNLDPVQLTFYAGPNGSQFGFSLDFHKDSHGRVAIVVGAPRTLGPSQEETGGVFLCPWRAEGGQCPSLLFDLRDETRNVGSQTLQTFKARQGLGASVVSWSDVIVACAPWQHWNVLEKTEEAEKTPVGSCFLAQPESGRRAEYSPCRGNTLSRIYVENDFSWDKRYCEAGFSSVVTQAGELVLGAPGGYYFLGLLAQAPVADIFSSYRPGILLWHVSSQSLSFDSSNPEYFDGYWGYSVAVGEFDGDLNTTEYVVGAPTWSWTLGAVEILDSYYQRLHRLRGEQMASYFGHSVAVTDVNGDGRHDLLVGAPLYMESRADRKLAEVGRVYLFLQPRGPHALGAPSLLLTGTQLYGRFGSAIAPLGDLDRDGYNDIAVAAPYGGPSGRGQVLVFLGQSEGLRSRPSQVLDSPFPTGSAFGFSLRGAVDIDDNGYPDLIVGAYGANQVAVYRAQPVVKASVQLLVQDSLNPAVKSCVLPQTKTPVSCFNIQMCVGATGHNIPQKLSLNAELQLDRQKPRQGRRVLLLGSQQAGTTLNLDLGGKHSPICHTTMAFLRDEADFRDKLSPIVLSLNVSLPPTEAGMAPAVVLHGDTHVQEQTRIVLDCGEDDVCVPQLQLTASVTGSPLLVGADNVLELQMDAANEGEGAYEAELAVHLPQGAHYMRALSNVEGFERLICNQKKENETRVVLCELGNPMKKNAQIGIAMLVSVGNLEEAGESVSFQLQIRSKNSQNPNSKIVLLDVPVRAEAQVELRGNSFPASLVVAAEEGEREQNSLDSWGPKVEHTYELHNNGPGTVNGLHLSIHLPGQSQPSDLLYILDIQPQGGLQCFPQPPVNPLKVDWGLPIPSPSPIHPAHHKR
Integrin alpha-IIb/beta-3, sequence (P08514 891-1039 limits assumed): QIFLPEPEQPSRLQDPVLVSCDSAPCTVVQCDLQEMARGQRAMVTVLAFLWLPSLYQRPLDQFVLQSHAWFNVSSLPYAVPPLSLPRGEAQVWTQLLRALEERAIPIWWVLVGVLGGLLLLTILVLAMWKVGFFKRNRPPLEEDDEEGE
In the case of `CC(C)(COC(=O)N1CCC2(CC1)CC(=O)N(c1ccc(C(=N)N)cc1)C2)C(=O)O` [2-(4-Carbamimidoyl-phenyl)-3-oxo-2,8-diaza-spiro[4.5]decane-8-carboxylic acid 2-carboxy-2-methyl-propyl ester], the half-maximal inhibitory concentration (IC50) (commonly the concentration that gives 50% inhibition) turned out to be 3.6 µM. In other words, the single-digit micromolar range.
`CCCCOC(=O)N[C@@H](CCC(=O)N1CCC2(CC1)CC(=O)N(c1ccc(C(=N)N)cc1)C2=O)C(=O)O` [2-Butoxycarbonylamino-5-[2-(4-carbamimidoyl-phenyl)-1,3-dioxo-2,8-diaza-spiro[4.5]dec-8-yl]-5-oxo-pentanoic acid] displayed a half-maximal inhibitory concentration (IC50) of 0.27 µM.
Consider `CCCCOC(=O)N[C@@H](CCC(=O)N1CCC2(CC1)CCN(c1ccc(C(=N)N)cc1)C2=O)C(=O)O` [2-Butoxycarbonylamino-5-[2-(4-carbamimidoyl-phenyl)-1-oxo-2,8-diaza-spiro[4.5]dec-8-yl]-5-oxo-pentanoic acid], for which half-maximal inhibition (IC50) required 0.066 µM.
As to `CCCCOC(=O)N[C@@H](CCC(=O)N1CCC2(CC1)C(=O)N(c1ccc(C(=N)N)cc1)C(=O)N2C)C(=O)O` [2-Butoxycarbonylamino-5-[3-(4-carbamimidoyl-phenyl)-1-methyl-2,4-dioxo-1,3,8-triaza-spiro[4.5]dec-8-yl]-5-oxo-pentanoic acid], inhibition was half-maximal at 0.065 µM (IC50).
In turn, `N=C(N)c1ccc(N2CCC3(CCN(C(=O)CC(=O)O)CC3)C2=O)cc1` [3-[2-(4-Carbamimidoyl-phenyl)-1-oxo-2,8-diaza-spiro[4.5]dec-8-yl]-3-oxo-propionic acid] returned a concentration for half-maximal inhibition (IC50) of 12.5 µM.
Compound `N=C(N)c1ccc(N2CC3(CCN(C(=O)CC(=O)O)CC3)CC2=O)cc1` [3-[2-(4-Carbamimidoyl-phenyl)-3-oxo-2,8-diaza-spiro[4.5]dec-8-yl]-3-oxo-propionic acid] came in with an IC50 of 7.4 µM.
`N=C(N)c1ccc(N2C(=O)CC3(CCN(C(=O)NCCC(=O)O)CC3)C2=O)cc1` [3-{[2-(4-Carbamimidoyl-phenyl)-1,3-dioxo-2,8-diaza-spiro[4.5]decane-8-carbonyl]-amino}-propionic acid] came in with an IC50 of 0.64 µM.
`Cc1ccc(S(=O)(=O)N[C@@H](CNC(=O)N2CCC3(CC2)CCN(c2ccc(C(=N)N)cc2)C3=O)C(=O)O)cc1` [3-{[2-(4-Carbamimidoyl-phenyl)-1-oxo-2,8-diaza-spiro[4.5]decane-8-carbonyl]-amino}-2-(toluene-4-sulfonylamino)-propionic acid] gave an IC50 of 0.066 µM.
For the compound `CC(CC(=O)O)NC(=O)N1CCC2(CC1)CCN(c1ccc(C(=N)N)cc1)C2=O` (stereo unspecified) [3-{[2-(4-Carbamimidoyl-phenyl)-1-oxo-2,8-diaza-spiro[4.5]decane-8-carbonyl]-amino}-butyric acid], the IC50 was found to be 0.122 µM. This IC50 lies about 1.8-fold higher than the previous one.
`N=C(N)c1ccc(N2CC3(CCN(C(=O)NCCC(=O)O)CC3)CC2=O)cc1` [3-{[2-(4-Carbamimidoyl-phenyl)-3-oxo-2,8-diaza-spiro[4.5]decane-8-carbonyl]-amino}-propionic acid] showed a 50% inhibitory concentration (IC50) of 0.171 µM.
Consider `CN1C(=O)N(c2ccc(C(=N)N)cc2)C(=O)C12CCN(C(=O)NC(CC(=O)O)c1ccccc1)CC2` (stereo unspecified) [3-{[3-(4-Carbamimidoyl-phenyl)-1-methyl-2,4-dioxo-1,3,8-triaza-spiro[4.5]decane-8-carbonyl]-amino}-3-phenyl-propionic acid], for which the midpoint of inhibition, the IC50, lay at 0.103 µM.
In the case of `CN1C(=O)N(c2ccc(C(=N)N)cc2)C(=O)C12CCN(C(=O)NCCC(=O)O)CC2` [3-{[3-(4-Carbamimidoyl-phenyl)-1-methyl-2,4-dioxo-1,3,8-triaza-spiro[4.5]decane-8-carbonyl]-amino}-propionic acid], it took 0.222 µM to reach half-maximal inhibition (IC50). Compared with the last compound, the IC50 is about 2.2-fold higher.
Compound `CN1C(=O)N(c2ccc(C(=N)N)cc2)CC12CCN(C(=O)NCCC(=O)O)CC2` [3-{[3-(4-Carbamimidoyl-phenyl)-1-methyl-2-oxo-1,3,8-triaza-spiro[4.5]decane-8-carbonyl]-amino}-propionic acid] registered an IC50 of 0.212 µM.
On to `N=C(N)c1ccc(N2C(=O)NC3(CCN(C(=O)NCCC(=O)O)CC3)C2=O)cc1` [3-{[3-(4-Carbamimidoyl-phenyl)-2,4-dioxo-1,3,8-triaza-spiro[4.5]decane-8-carbonyl]-amino}-propionic acid], for which the IC50 was found to be 0.468 µM.
`N=C(N)c1ccc(N2CC3(CCN(C(=O)NCCC(=O)O)CC3)NC2=O)cc1` [3-{[3-(4-Carbamimidoyl-phenyl)-2-oxo-1,3,8-triaza-spiro[4.5]decane-8-carbonyl]-amino}-propionic acid] displayed an IC50 of 3.77 µM.
Next, `N=C(N)c1ccc(N2CCC3(CCN(C(=O)CCC(=O)O)CC3)C2=O)cc1` [4-[2-(4-Carbamimidoyl-phenyl)-1-oxo-2,8-diaza-spiro[4.5]dec-8-yl]-4-oxo-butyric acid]: 0.733 µM.
In turn, `N=C(N)c1ccc(N2CC3(CCN(C(=O)CCC(=O)O)CC3)CC2=O)cc1` [4-[2-(4-Carbamimidoyl-phenyl)-3-oxo-2,8-diaza-spiro[4.5]dec-8-yl]-4-oxo-butyric acid] came in with a 50% inhibitory concentration (IC50) of 5.7 µM.
Next, `N=C(N)c1ccc(N2C(=O)CC3(CCN(C(=O)CCCC(=O)O)CC3)C2=O)cc1` [5-[2-(4-Carbamimidoyl-phenyl)-1,3-dioxo-2,8-diaza-spiro[4.5]dec-8-yl]-5-oxo-pentanoic acid]: 0.73 µM; `Cc1noc(C)c1S(=O)(=O)N[C@@H](CCC(=O)N1CCC2(CC1)CCN(c1ccc(C(=N)N)cc1)C2=O)C(=O)O` [5-[2-(4-Carbamimidoyl-phenyl)-1-oxo-2,8-diaza-spiro[4.5]dec-8-yl]-2-(3,5-dimethyl-isoxazole-4-sulfonylamino)-5-oxo-pentanoic acid]: 0.036 µM; `N=C(N)c1ccc(N2CCC3(CCN(C(=O)CC(CC(=O)O)c4ccccc4)CC3)C2=O)cc1` (stereo unspecified) [5-[2-(4-Carbamimidoyl-phenyl)-1-oxo-2,8-diaza-spiro[4.5]dec-8-yl]-5-oxo-3-phenyl-pentanoic acid]: 0.149 µM.
`N=C(N)c1ccc(N2CCC3(CCN(CCCCC(=O)O)CC3)C2=O)cc1` [5-[2-(4-Carbamimidoyl-phenyl)-1-oxo-2,8-diaza-spiro[4.5]dec-8-yl]-pentanoic acid] had a half-inhibitory concentration (IC50) of 5.18 µM.
Regarding `N=C(N)c1ccc(N2CC3(CCN(C(=O)CC(CC(=O)O)c4ccccc4)CC3)CC2=O)cc1` (stereo unspecified) [5-[2-(4-Carbamimidoyl-phenyl)-3-oxo-2,8-diaza-spiro[4.5]dec-8-yl]-5-oxo-3-phenyl-pentanoic acid], the IC50 was 0.1 µM.
Consider `Cc1noc(C)c1S(=O)(=O)N[C@@H](CCC(=O)N1CCC2(CC1)C(=O)N(c1ccc(C(=N)N)cc1)C(=O)N2C)C(=O)O` [5-[3-(4-Carbamimidoyl-phenyl)-1-methyl-2,4-dioxo-1,3,8-triaza-spiro[4.5]dec-8-yl]-2-(3,5-dimethyl-isoxazole-4-sulfonylamino)-5-oxo-pentanoic acid], for which the IC50 stood at 0.118 µM.
Regarding `CN1C(=O)N(c2ccc(C(=N)N)cc2)C(=O)C12CCN(C(=O)CC(CC(=O)O)c1ccccc1)CC2` (stereo unspecified) [5-[3-(4-Carbamimidoyl-phenyl)-1-methyl-2,4-dioxo-1,3,8-triaza-spiro[4.5]dec-8-yl]-5-oxo-3-phenyl-pentanoic acid], the half-maximal inhibitory concentration (IC50) came out at 0.12 µM.
The compound `CN1C(=O)N(c2ccc(C(=N)N)cc2)C(=O)C12CCN(C(=O)CCCC(=O)O)CC2` [5-[3-(4-Carbamimidoyl-phenyl)-1-methyl-2,4-dioxo-1,3,8-triaza-spiro[4.5]dec-8-yl]-5-oxo-pentanoic acid] came in with an IC50 of 0.7 µM. This IC50 is about 5.8-fold higher than that of the compound before.
For the compound `CN1C(=O)N(c2ccc(C(=N)N)cc2)C(=O)C12CCN(CCCCC(=O)O)CC2` [5-[3-(4-Carbamimidoyl-phenyl)-1-methyl-2,4-dioxo-1,3,8-triaza-spiro[4.5]dec-8-yl]-pentanoic acid], the IC50 came out at 7.56 µM.
`CN1C(=O)N(c2ccc(C(=N)N)cc2)CC12CCN(C(=O)CC(CC(=O)O)c1ccccc1)CC2` (stereo unspecified) [5-[3-(4-Carbamimidoyl-phenyl)-1-methyl-2-oxo-1,3,8-triaza-spiro[4.5]dec-8-yl]-5-oxo-3-phenyl-pentanoic acid]: the IC50 worked out at 0.08 µM.
The compound `CN1C(=O)N(c2ccc(C(=N)N)cc2)CC12CCN(C(=O)CCCC(=O)O)CC2` [5-[3-(4-Carbamimidoyl-phenyl)-1-methyl-2-oxo-1,3,8-triaza-spiro[4.5]dec-8-yl]-5-oxo-pentanoic acid] came in with an IC50 of 0.674 µM.
The compound `N=C(N)c1ccc(N2C(=O)NC3(CCN(C(=O)CCCC(=O)O)CC3)C2=O)cc1` [5-[3-(4-Carbamimidoyl-phenyl)-2,4-dioxo-1,3,8-triaza-spiro[4.5]dec-8-yl]-5-oxo-pentanoic acid] showed an IC50 of 0.586 µM. The IC50 values of the last two compounds are within 1.5-fold of each other.
`N=C(N)c1ccc(N2CC3(CCN(C(=O)CCCC(=O)O)CC3)NC2=O)cc1` [5-[3-(4-Carbamimidoyl-phenyl)-2-oxo-1,3,8-triaza-spiro[4.5]dec-8-yl]-5-oxo-pentanoic acid]: the IC50 came to 1.02 µM.
The compound `CCNC(=N)c1ccc(N2CCC3(CCN(C(=O)CCCC(=O)O)CC3)C2=O)cc1` [5-{2-[4-(N-Ethylcarbamimidoyl)-phenyl]-1-oxo-2,8-diaza-spiro[4.5]dec-8-yl}-5-oxo-pentanoic acid] yielded a concentration for half-maximal inhibition (IC50) of 7.54 µM.
In turn, `N=C(N)c1ccc(N2CCC3(CCN(C(=O)CCCCC(=O)O)CC3)C2=O)cc1` [6-[2-(4-Carbamimidoyl-phenyl)-1-oxo-2,8-diaza-spiro[4.5]dec-8-yl]-6-oxo-hexanoic acid] had a concentration for half-maximal inhibition (IC50) of 3.4 µM.
In the case of `N=C(N)c1ccc(N2CC3(CCN(C(=O)CCCCC(=O)O)CC3)CC2=O)cc1` [6-[2-(4-Carbamimidoyl-phenyl)-3-oxo-2,8-diaza-spiro[4.5]dec-8-yl]-6-oxo-hexanoic acid] it was 4.1 µM; in that of `C[C@H](CC(=O)O)NC(=O)N1CCC2(CC1)CCN(c1ccc(C(=N)N)cc1)C2=O` [(R)-3-{[2-(4-Carbamimidoyl-phenyl)-1-oxo-2,8-diaza-spiro[4.5]decane-8-carbonyl]-amino}-butyric acid], 0.068 µM.
In turn, `Cc1ccc(S(=O)(=O)N[C@@H](CNC(=O)N2CCC3(CC2)C(=O)N(c2ccc(C(=N)N)cc2)C(=O)N3C)C(=O)O)cc1` [(S)-3-{[3-(4-Carbamimidoyl-phenyl)-1-methyl-2,4-dioxo-1,3,8-triaza-spiro[4.5]decane-8-carbonyl]-amino}-2-(toluene-4-sulfonylamino)-propionic acid] had an IC50 of 0.059 µM. The IC50 values of the last two compounds are within 1.5-fold of each other.
With `C[C@H](CC(=O)O)CC(=O)N1CCC2(CC1)CCN(c1ccc(C(=N)N)cc1)C2=O` [(S)-5-[2-(4-Carbamimidoyl-phenyl)-1-oxo-2,8-diaza-spiro[4.5]dec-8-yl]-3-methyl-5-oxo-pentanoic acid], the half-maximal inhibitory concentration (IC50) was 0.35 µM.
